# Earlier results in patent publication US20250032516A1, “COMPOSITIONS AND METHODS FOR TREATING EPILEPSY” (POVIVA CORP, priority 2023, published 2025).
# Where two headings read alike, the source gives them in different places.
# Conditions: children with Dravet syndrome
compound,measurement,setting,value
"C=C(C)[C@@H]1CCC(C)=C[C@H]1c1c(O)cc(CCCCC)cc1O [Cannabidiol, 2-[(1R,6R)-6-Isopropenyl-3-methylcyclohex-2-en-1-yl]-5-pentylbenzene-1,3-diol]","Plasma concentration on Day 1 at starting CBD dose, 5 hours, Mean (SD)",5 mg/kg/day group (N = 10),10.0 (5.74) ng/mL
same,"Plasma concentration on Day 1 at starting CBD dose, […], Mean (SD)",5 mg/kg/day group (N = 10),37.6 (53.7) ng/mL
same,"Plasma concentration on Day 1 at starting CBD dose, 5 hours, Mean (SD)",10 mg/kg/day group (N = 8),11.3 (11.7) ng/mL
same,"Plasma concentration on Day 1 at starting CBD dose, […], Mean (SD)",10 mg/kg/day group (N = 8),34.4 (32.1) ng/mL
same,"Plasma concentration on Day 1 at starting CBD dose, 5 hours, Mean (SD)",20 mg/kg/day group (N = 9),25.3 (42.4) ng/mL
same,"Plasma concentration on Day 1 at starting CBD dose, […], Mean (SD)",20 mg/kg/day group (N = 9),29.3 (28.5) ng/mL
